Key:
Assay in all cases: Kinase profiling screen (radioactive filter-binding assay)
Type in all cases: biochemical
[1] = target: DAPK1 (Homo sapiens, UniProt P53355); details: 100 μM compound, 5 μM ATP; read-out: Kinase activity, % of activity in the absence of inhibitor
Procedure, shortened: (§1)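 Panel of 117 recombinant kinases; CoA, dpCoA, ADP each at 100 μM final, duplicates; model substrates, ATP at optimal level.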

[2] = target: PIM3 (Homo sapiens, UniProt Q86V86); details: 100 μM compound, 20 μM ATP; read-out: Kinase activity, % of activity in the absence of inhibitor
Procedure, shortened: as §1

[3] = target: HIPK2 (Homo sapiens, UniProt Q9H2X6); details: 100 μM compound, 5 μM ATP; read-out: Kinase activity, % of activity in the absence of inhibitor
Sequence of HIPK2 (Q9H2X6 whole entry): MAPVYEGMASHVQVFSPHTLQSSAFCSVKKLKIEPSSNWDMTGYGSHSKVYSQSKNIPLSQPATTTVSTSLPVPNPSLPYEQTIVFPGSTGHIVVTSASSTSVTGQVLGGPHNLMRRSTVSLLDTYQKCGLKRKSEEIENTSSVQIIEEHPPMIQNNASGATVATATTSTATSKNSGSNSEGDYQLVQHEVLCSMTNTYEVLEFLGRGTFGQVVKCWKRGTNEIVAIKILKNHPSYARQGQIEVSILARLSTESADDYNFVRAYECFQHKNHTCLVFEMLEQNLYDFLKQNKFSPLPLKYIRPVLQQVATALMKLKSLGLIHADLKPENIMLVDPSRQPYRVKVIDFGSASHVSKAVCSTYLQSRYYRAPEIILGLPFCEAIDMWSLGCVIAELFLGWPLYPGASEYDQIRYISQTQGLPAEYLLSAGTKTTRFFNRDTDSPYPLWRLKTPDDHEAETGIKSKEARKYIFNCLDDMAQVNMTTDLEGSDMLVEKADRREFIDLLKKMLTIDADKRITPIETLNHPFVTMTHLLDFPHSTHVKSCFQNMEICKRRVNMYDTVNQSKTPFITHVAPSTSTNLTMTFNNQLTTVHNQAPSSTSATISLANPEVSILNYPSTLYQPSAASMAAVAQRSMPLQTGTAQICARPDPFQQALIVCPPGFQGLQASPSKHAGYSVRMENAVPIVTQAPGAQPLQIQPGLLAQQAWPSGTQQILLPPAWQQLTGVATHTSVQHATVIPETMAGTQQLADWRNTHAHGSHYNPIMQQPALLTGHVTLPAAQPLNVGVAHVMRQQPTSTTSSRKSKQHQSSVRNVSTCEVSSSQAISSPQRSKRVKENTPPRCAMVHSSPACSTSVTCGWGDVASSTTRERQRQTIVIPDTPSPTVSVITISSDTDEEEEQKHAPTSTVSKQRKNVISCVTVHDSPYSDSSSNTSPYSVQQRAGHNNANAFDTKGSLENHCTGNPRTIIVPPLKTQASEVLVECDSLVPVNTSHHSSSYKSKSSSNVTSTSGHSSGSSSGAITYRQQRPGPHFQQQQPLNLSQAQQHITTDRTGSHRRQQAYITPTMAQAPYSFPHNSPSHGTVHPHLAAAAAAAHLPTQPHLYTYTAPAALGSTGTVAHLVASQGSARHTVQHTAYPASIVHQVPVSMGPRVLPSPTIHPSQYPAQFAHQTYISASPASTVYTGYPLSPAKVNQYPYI
Procedure, shortened: as §1

[4] = target: ERK2 (Homo sapiens, UniProt P28482); details: 100 μM compound, 20 μM ATP; read-out: Kinase activity, % of activity in the absence of inhibitor
Sequence of ERK2 (P28482 whole entry): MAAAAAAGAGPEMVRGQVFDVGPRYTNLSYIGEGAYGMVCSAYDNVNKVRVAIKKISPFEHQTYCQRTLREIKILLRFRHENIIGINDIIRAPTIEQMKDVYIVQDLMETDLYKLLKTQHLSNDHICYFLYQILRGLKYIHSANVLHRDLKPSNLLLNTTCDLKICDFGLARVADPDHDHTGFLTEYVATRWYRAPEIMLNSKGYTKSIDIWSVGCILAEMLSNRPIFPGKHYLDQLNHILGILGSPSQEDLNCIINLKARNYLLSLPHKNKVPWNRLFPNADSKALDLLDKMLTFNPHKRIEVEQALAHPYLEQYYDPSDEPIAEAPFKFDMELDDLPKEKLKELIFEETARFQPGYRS
Procedure, shortened: as §1

[5] = target: T1, EPH-B3 (Homo sapiens, UniProt P54753); details: 100 μM compound, 20 μM ATP; read-out: Kinase activity, % of activity in the absence of inhibitor
T1 sequence (P54753 34-998): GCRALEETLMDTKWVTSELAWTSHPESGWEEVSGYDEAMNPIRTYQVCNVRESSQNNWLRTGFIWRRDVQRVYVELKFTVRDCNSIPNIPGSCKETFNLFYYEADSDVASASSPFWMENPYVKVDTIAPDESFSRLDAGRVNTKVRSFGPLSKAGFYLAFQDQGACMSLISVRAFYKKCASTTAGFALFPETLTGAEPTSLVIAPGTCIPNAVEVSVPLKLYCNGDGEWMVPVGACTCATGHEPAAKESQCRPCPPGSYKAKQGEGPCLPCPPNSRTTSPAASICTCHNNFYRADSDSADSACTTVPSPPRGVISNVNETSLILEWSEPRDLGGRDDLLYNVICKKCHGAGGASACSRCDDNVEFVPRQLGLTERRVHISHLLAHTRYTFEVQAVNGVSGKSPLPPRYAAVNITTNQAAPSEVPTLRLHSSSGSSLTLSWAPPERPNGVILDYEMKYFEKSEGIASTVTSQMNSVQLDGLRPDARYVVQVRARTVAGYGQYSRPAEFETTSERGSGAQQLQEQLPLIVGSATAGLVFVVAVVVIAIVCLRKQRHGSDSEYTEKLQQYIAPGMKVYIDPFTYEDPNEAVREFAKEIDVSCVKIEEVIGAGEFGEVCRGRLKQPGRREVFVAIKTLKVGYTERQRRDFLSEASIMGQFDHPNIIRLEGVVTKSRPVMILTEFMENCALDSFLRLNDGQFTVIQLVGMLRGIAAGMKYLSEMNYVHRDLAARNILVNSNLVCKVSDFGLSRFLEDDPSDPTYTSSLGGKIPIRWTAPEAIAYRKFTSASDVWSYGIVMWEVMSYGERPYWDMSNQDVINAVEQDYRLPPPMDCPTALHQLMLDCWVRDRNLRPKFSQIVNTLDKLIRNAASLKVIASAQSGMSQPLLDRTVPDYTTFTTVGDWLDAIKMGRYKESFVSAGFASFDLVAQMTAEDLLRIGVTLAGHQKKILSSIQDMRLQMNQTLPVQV
Procedure, shortened: as §1

[6] = target: DYRK1A (Homo sapiens, UniProt Q13627); details: 100 μM compound, 50 μM ATP; read-out: Kinase activity, % of activity in the absence of inhibitor
Procedure, shortened: as §1

[7] = target: T2, IKKβ (Homo sapiens, UniProt O14920); details: 100 μM compound, 5 μM ATP; read-out: Kinase activity, % of activity in the absence of inhibitor
T2 sequence (O14920 1-756): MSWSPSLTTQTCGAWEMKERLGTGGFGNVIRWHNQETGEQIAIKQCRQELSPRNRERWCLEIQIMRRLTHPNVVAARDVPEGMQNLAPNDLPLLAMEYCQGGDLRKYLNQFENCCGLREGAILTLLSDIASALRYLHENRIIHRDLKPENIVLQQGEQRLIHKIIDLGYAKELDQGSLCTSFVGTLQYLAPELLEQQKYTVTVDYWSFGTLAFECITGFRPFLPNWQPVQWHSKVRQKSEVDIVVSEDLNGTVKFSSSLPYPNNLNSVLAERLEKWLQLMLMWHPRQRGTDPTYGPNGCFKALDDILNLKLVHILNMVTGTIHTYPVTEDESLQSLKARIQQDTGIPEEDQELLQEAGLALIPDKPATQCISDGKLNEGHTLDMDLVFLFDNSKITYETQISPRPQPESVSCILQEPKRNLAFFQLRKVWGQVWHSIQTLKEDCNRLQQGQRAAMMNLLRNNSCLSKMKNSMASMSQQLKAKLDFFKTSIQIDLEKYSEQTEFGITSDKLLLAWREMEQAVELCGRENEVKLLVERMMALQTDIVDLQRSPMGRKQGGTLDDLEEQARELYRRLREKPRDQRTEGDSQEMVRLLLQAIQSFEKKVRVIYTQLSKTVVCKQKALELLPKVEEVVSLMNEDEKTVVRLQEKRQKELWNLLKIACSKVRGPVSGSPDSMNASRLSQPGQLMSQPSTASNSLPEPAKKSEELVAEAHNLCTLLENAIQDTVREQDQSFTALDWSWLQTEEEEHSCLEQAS
Procedure, shortened: as §1

[8] = target: PLK1 (Homo sapiens, UniProt P53350); details: 100 μM compound, 5 μM ATP; read-out: Kinase activity, % of activity in the absence of inhibitor
Sequence of PLK1 (P53350 whole entry): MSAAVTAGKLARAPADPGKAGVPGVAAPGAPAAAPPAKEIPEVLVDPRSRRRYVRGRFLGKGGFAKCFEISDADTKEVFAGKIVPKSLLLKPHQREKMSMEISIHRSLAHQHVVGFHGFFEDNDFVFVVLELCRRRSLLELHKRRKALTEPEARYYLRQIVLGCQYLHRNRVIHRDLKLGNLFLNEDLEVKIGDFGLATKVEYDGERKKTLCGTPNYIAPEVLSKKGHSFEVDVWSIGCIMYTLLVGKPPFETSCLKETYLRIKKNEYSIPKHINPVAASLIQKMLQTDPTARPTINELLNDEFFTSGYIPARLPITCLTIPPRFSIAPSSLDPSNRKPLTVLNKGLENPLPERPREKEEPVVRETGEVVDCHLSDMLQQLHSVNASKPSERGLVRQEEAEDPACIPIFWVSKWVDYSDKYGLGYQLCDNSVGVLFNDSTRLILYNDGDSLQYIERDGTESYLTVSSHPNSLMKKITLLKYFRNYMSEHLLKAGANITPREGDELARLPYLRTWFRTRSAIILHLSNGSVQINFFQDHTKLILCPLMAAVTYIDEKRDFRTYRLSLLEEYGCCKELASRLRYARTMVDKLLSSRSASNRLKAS
Procedure, shortened: as §1

[9] = target: NEK6 (Homo sapiens, UniProt Q9HC98); details: 100 μM compound, 50 μM ATP; read-out: Kinase activity, % of activity in the absence of inhibitor
Sequence of NEK6 (Q9HC98 whole entry): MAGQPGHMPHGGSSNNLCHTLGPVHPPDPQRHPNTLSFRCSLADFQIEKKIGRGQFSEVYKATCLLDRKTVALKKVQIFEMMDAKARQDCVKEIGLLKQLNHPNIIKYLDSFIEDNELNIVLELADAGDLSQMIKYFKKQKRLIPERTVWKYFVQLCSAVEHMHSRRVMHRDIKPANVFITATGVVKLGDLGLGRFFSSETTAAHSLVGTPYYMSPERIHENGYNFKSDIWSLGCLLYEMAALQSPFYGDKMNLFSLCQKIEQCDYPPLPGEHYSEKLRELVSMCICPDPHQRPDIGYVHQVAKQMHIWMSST
Procedure, shortened: as §1

Sequence of DAPK1 (P53355 whole entry): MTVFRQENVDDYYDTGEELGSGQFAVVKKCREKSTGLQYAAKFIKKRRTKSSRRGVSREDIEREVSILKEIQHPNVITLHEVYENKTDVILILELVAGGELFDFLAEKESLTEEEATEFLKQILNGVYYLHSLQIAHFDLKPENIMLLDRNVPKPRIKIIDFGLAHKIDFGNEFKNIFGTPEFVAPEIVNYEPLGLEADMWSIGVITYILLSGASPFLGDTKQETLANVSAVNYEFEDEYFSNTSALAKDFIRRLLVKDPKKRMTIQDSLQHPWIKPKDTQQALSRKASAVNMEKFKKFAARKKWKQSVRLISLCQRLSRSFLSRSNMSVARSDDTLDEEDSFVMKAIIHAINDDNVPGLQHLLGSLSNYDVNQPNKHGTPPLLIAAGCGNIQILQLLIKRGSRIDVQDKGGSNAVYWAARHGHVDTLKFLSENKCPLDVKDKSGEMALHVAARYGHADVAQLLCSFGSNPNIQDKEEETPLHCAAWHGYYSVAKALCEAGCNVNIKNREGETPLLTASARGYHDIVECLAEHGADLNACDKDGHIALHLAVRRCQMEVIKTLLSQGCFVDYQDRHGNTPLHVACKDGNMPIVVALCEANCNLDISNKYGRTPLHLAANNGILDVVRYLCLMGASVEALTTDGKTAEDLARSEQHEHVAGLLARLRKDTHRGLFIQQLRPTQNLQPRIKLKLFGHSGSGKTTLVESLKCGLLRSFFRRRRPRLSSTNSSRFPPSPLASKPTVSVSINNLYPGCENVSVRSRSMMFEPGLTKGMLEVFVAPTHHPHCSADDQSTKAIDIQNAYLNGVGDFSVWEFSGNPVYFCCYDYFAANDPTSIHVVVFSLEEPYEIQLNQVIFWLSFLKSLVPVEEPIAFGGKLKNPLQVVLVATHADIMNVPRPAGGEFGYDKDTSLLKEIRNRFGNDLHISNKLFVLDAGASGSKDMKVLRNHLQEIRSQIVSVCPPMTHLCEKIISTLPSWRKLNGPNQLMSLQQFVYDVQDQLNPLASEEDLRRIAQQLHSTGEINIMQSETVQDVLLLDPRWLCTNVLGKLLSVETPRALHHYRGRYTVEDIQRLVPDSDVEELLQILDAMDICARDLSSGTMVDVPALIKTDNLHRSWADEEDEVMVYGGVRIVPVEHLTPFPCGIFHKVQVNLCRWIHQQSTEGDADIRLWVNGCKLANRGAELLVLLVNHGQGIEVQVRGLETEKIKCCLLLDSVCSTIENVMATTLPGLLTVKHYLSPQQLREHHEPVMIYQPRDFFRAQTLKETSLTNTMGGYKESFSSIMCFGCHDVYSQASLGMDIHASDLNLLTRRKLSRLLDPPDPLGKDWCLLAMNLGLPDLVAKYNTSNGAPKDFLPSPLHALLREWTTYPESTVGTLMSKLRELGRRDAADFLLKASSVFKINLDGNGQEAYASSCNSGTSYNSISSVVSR

Row | Structure (SMILES) | activity at 100 µM [1] | activity at 100 µM [2] | activity at 100 µM [3] | activity at 100 µM [4] | activity at 100 µM [5] | activity at 100 µM [6] | activity at 100 µM [7] | activity at 100 µM [8] | activity at 100 µM [9]
1 | CC(C)(COP(=O)(O)OP(=O)(O)OC[C@H]1O[C@@H](n2cnc3c(N)ncnc32)[C@H](O)[C@@H]1OP(=O)(O)O)[C@@H](O)C(=O)NCCC(=O)NCCS [CoA, Coenzyme A] | 106% | 122% | 153% | 120% | 104% | 93.1% | 90.5% | 101% | 118%
2 | CC(C)(COP(=O)(O)OP(=O)(O)OCC1OC(n2cnc3c(N)ncnc32)C(O)C1O)C(O)C(=O)NCCC(=O)NCCS (stereo not drawn) [dpCoA, dephospho-CoA] | 64.4% | 96.7% | 73.4% | 81.7% | 94.4% | 90.2% | 48% | 100% | 69.6%
3 | Nc1ncnc2c1ncn2C1OC(COP(=O)(O)OP(=O)(O)O)C(O)C1O (stereo not drawn) [ADP] | 10.3% | 36.1% | 16.5% | 54.4% | 18% | 75.9% | 26.6% | 52.2% | 26.6%

Source: publication PMC6812009, “Covalent Aurora A regulation by the metabolic integrator coenzyme A” (Redox Biology, 2019)
